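Tested at 5 concentrations; 48 h exposure; 96-well plates; endpoints linearly interpolated, else capped at highest concentration. GI50 is the concentration that inhibits growth by half.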 The source made the active and inactive calls. Rule as the data show it: active = GI50 up to about 1.1 µM and inactive = higher.
Key:
Experiment in all cases: NCI tumour cell line growth inhibition, 48 h
DLD-1 = tested on: DLD-1
DMS-114 = tested on: DMS-114
DMS-273 = tested on: DMS-273
HOP-18 = tested on: HOP-18
KM-20L2 = tested on: KM-20L2
LXFL 529 = tested on: LXFL 529
M19-MEL = tested on: M19-MEL
RXF 631 = tested on: RXF 631
XF498 = tested on: XF498

Structure (SMILES) | GI50 (DLD-1) | GI50 (DMS-114) | GI50 (DMS-273) | GI50 (HOP-18) | GI50 (KM-20L2) | GI50 (LXFL 529) | GI50 (M19-MEL) | GI50 (RXF 631) | GI50 (XF498)
O=C1Nc2ccc(Br)cc2/C1=N/Nc1ccc([N+](=O)[O-])cc1 | 31.5 µM (inactive) | 18.5 µM (inactive) | 9.95 µM (inactive) | 17.7 µM (inactive) | 72.1 µM (inactive) | 22.8 µM (inactive) | 17.1 µM (inactive) | 17.3 µM (inactive) | 23.7 µM (inactive)
COc1ccc2nc(C)cc(NCCCCCCCCCNc3cc(C)nc4ccc(OC)cc34)c2c1 | 2.31 µM (inactive) | 1.15 µM (inactive) | 0.931 µM (active) | – | 0.946 µM (active) | 1.17 µM (inactive) | 14.6 µM (inactive) | – | 2.21 µM (inactive)
COc1ccc2oc(C(=O)O)c3c2c1CCC3CCC(=O)O (configuration not stated) | > 100 µM (inactive) | > 100 µM (inactive) | > 100 µM (inactive) | – | – | > 100 µM (inactive) | > 100 µM (inactive) | > 100 µM (inactive) | > 100 µM (inactive)
CCCCNC(=O)C1C2CCC(O2)C1C(=O)O (configuration not stated) | 20.2 µM (inactive) | 13.9 µM (inactive) | 32.4 µM (inactive) | 30.4 µM (inactive) | 6.24 µM (inactive) | 16 µM (inactive) | 19.3 µM (inactive) | 32.5 µM (inactive) | 3.41 µM (inactive)
COc1ccc(C(=O)C(c2ccc(OC)cc2)C2C(=O)Oc3ccccc32)cc1 (configuration not stated) | > 10 µM (inactive) | > 10 µM (inactive) | > 10 µM (inactive) | 59.4 µM (inactive) | > 10 µM (inactive) | > 10 µM (inactive) | > 10 µM (inactive) | > 10 µM (inactive) | > 10 µM (inactive)
CC[C@@]1(O)C[C@H](OC2CC(N(C)C)C(OC3CC(O)C(OC4CCC(=O)C(C)O4)C(C)O3)C(C)O2)c2c(cc3c(c2O)C(=O)c2c(O)ccc(O)c2C3=O)[C@H]1C(=O)OC (some centres not stated) | < 1e-05 µM (active) | – | < 1e-05 µM (active) | 0.0128 µM (active) | – | – | – | – | –
CCCCCCCC/C=C\CCCCCCCC(=O)NCCN(CCN)C(=O)CCCCCCC/C=C\CCCCCCCC | > 100 µM (inactive) | > 100 µM (inactive) | > 100 µM (inactive) | > 100 µM (inactive) | > 100 µM (inactive) | > 100 µM (inactive) | > 100 µM (inactive) | – | –
CCCCCCCCCCC/C(=N/O)c1ccc(O)c2ncccc12 | 2.75 µM (inactive) | 2 µM (inactive) | 1.51 µM (inactive) | 3.36 µM (inactive) | 3.85 µM (inactive) | 2.23 µM (inactive) | 2.11 µM (inactive) | – | –
OC1C2C=CCC1CCC2 (configuration not stated) | > 100 µM (inactive) | > 100 µM (inactive) | > 100 µM (inactive) | > 100 µM (inactive) | > 100 µM (inactive) | – | > 100 µM (inactive) | > 100 µM (inactive) | > 100 µM (inactive)
O=C1c2ccccc2C2(O)Oc3cccc(O)c3C12O (configuration not stated) | > 100 µM (inactive) | > 100 µM (inactive) | > 100 µM (inactive) | > 100 µM (inactive) | > 100 µM (inactive) | > 100 µM (inactive) | > 100 µM (inactive) | > 100 µM (inactive) | –
N=C(N)NS(=O)(=O)c1ccc(Nc2c3ccccc3nc3c(C(=O)N4CCN(CCO)CC4)cccc23)cc1 | > 100 µM (inactive) | > 100 µM (inactive) | > 100 µM (inactive) | > 100 µM (inactive) | > 100 µM (inactive) | > 100 µM (inactive) | > 100 µM (inactive) | – | > 100 µM (inactive)
COc1ccc2nc3cc(Cl)ccc3c(NCCC(=O)OCC(O)C(O)C(O[C@H](C)C(=O)NC(C)C(=O)NC(CCC(N)=O)C(=O)OCc3ccccc3)C(C=O)NC(C)=O)c2c1 (some centres not stated) | 17.4 µM (inactive) | – | 14.2 µM (inactive) | – | 17.2 µM (inactive) | 17.3 µM (inactive) | 18 µM (inactive) | 19.6 µM (inactive) | 18.5 µM (inactive)
O=C(Cc1ccccc1)Oc1ccc2c(-c3ccccc3)c(C(=O)Nc3ccc(Cl)cc3)c(=O)oc2c1 | > 100 µM (inactive) | > 100 µM (inactive) | > 100 µM (inactive) | – | > 100 µM (inactive) | > 100 µM (inactive) | > 100 µM (inactive) | – | > 100 µM (inactive)
Cc1ccccc1Nc1nc2c(s1)C(=O)c1ccccc1C2=O | 5.73 µM (inactive) | 2 µM (inactive) | 8.07 µM (inactive) | 12.4 µM (inactive) | 28.6 µM (inactive) | 4.61 µM (inactive) | 1.95 µM (inactive) | – | 15.6 µM (inactive)
Fc1cccc(C2SCc3nc4ccccc4n32)c1F (configuration not stated) | > 100 µM (inactive) | 23.8 µM (inactive) | 19.4 µM (inactive) | 56.1 µM (inactive) | > 100 µM (inactive) | 40.9 µM (inactive) | 43.9 µM (inactive) | 16.4 µM (inactive) | –
O=C(Nc1cc(Cl)c(Cl)cc1Cl)C(=O)C(C(=O)c1ccc2ccccc2c1)C1OC(=O)c2ccccc21 (configuration not stated) | 14.4 µM (inactive) | 9.2 µM (inactive) | – | – | – | 10.6 µM (inactive) | 13.6 µM (inactive) | – | –
O=C(CSc1c2ccccc2nc2ccccc12)Nc1ccccc1-c1ccccc1NC(=O)CSc1c2ccccc2nc2ccccc12 | 13.9 µM (inactive) | 15 µM (inactive) | 32.2 µM (inactive) | 79.1 µM (inactive) | 31.3 µM (inactive) | 9.46 µM (inactive) | 23.1 µM (inactive) | – | 19.1 µM (inactive)
O=C1CNNC(Cn2nc(-c3ccccc3)c3ccccc3c2=O)=N1 | > 100 µM (inactive) | > 100 µM (inactive) | > 100 µM (inactive) | > 100 µM (inactive) | – | > 100 µM (inactive) | > 100 µM (inactive) | – | –
O=C(O)CCSCCCN1C(=O)c2ccccc2C1=O | – | > 100 µM (inactive) | – | – | > 100 µM (inactive) | > 100 µM (inactive) | > 100 µM (inactive) | – | –
COc1ccccc1NC(=O)C(=O)C(c1cnc2ccc([N+](=O)[O-])cc2n1)[N+](=O)[O-] (configuration not stated) | > 100 µM (inactive) | 17.9 µM (inactive) | 64 µM (inactive) | > 100 µM (inactive) | > 100 µM (inactive) | 75 µM (inactive) | > 100 µM (inactive) | 39.2 µM (inactive) | > 100 µM (inactive)
Cc1ccc(S(=O)(=O)c2c(N)c3nccn3c3nc4ccccc4nc23)cc1 | > 100 µM (inactive) | > 100 µM (inactive) | 81.1 µM (inactive) | – | > 100 µM (inactive) | > 100 µM (inactive) | > 100 µM (inactive) | – | 41.8 µM (inactive)
O=C(Cc1ccccc1)C(c1ccccc1)S(=O)(=O)c1ccccc1 (configuration not stated) | > 100 µM (inactive) | 48.6 µM (inactive) | > 100 µM (inactive) | 85.5 µM (inactive) | > 100 µM (inactive) | 87.1 µM (inactive) | > 100 µM (inactive) | > 100 µM (inactive) | > 100 µM (inactive)
COC(=O)CC(=O)C[P+](c1ccccc1)(c1ccccc1)c1ccccc1 | 194 µM (inactive) | > 218 µM (inactive) | > 218 µM (inactive) | 39.8 µM (inactive) | > 218 µM (inactive) | 89.9 µM (inactive) | 209 µM (inactive) | > 218 µM (inactive) | 45.4 µM (inactive)
CCOC(=O)NN1C(=O)C(=P(c2ccccc2)(c2ccccc2)c2ccccc2)C(C(=O)OCC)=C1C | > 100 µM (inactive) | – | > 100 µM (inactive) | – | > 100 µM (inactive) | > 100 µM (inactive) | > 100 µM (inactive) | > 100 µM (inactive) | > 100 µM (inactive)
COC(=O)C1=C(O)C(O)=C(C(=O)OC)C1 | > 100 µM (inactive) | > 100 µM (inactive) | > 100 µM (inactive) | > 100 µM (inactive) | > 100 µM (inactive) | > 100 µM (inactive) | > 100 µM (inactive) | – | –
COC(=O)CC(C(C(=O)OCc1ccccc1)C(C)O)N1C(=O)OC(c2ccccc2)C1c1ccccc1 (configuration not stated) | > 100 µM (inactive) | 81.5 µM (inactive) | > 100 µM (inactive) | – | > 100 µM (inactive) | > 100 µM (inactive) | > 100 µM (inactive) | > 100 µM (inactive) | 24.9 µM (inactive)
Cc1cc2nc3ccc(N(C)C)cc3[s+]c2cc1N [TOLONIUM CHLORIDE] | 6.38 µM (inactive) | 0.867 µM (active) | 2.67 µM (inactive) | 10.3 µM (inactive) | 14.5 µM (inactive) | 0.769 µM (active) | 0.184 µM (active) | – | –
